The results in this text go back to US10782294B2, “Peptides derived from myosin 19 and methods of use thereof” (TECHNION RESEARCH & DEVELOPMENT FOUNDATION LIMITED, priority 2014, dated 2020).

Assay [1] has as its system Myo19-eGFP expressing U2OS cells. The assay can be described thus: Myo19 foci formation / translocation to cell periphery in Myo19-eGFP expressing cells treated with cytoskeleton interfering drugs. Type of assay: cell-based. As for the experimental part:
Cells were rinsed once and incubated in starvation medium (Glucose free DMEM supplemented with 20 mM Hepes-KOH pH 7.4, 5 mg/ml BSA, 100 U/ml penicillin, 100 μg/ml streptomycin and 0.25 μg/ml amphotericin B). Cytoskeleton interfering drugs (final concentration: 0.2 μM Latrunculin B or 0.75 μg/ml Nocodazole) were first diluted in growth media and then added to the cells.
(§1) Transfections were performed using Polyethylenimine (PEI). Adherent U2OS cells were plated a day before transfection on plastic or glass bottom dishes and allowed to adhere overnight (ON). Plasmid DNA and PEI were diluted separately in 150 mM NaCl, combined and complex formation was allowed for 25 min at RT before addition to the cells and incubation ON. Hoechst 33342 (0.75 μg/ml Sigma), MitoTracker (30 nM, Molecular probes) and Propidium iodide (1 μg/ml, Sigma) were added 15 min prior to imaging. HaloTag constructs were stained by incubating the cells with HaloTag TMR Ligand ON (25 nM, Promega). The cells were imaged using InCell Analyzer 2000, Confocal Zeiss LSM 700 or Confocal Zeiss LSM 710 in an environmental chamber.
Mitochondria function as an intracellular biosensor that responds to environmental changes, stress cues and physiological stimuli. Therefore, it is essential to test the function of myosin 19 and its relation to mitochondrial distribution and morphology in cells under starvation conditions as well under drugs, which disrupt cytoskeletal structures. Starvation stress was chosen because it strongly shifts mitochondrial dynamics of fission and fusion, inducing hyperfusion of the mitochondrial network, and that fission and fusion depend on force generation on the mitochondria. Therefore, it was assessed whether or not starvation-induced hyperfusion is accompanied by any differential cellular localization of myosin 19. Myosin 19-eGFP was overexpressed and cells were starved for four hrs. […] The inventors further tested if myosin 19 OMM binding motif is essential for this starvation-induced localization (FIG. 3A, middle two panels). […] This lends further support to the interpretation that myosin 19^Δ860-890-eGFP cannot compete with the endogenous myosin 19 because of its inability to bind the mitochondria. The inventors further assessed whether this transition of myosin 19 to the cell periphery requires myosin 19 motor activity utilizing an overexpression of myosin 19 tail (FIG. 3A, bottom two panels, FIG. 8) and an ATPase dead mutant G 135R (FIG. 9, FIG. 8). […] Indeed, pre-treatment of cells with 0.2 μM Latrunculin B that disrupts actin filaments of the cytoskeleton for 30 min inhibited the starvation-induced translocation of myosin 19 and the mitochondria to the cell periphery (FIG. 3B, FIG. 10). […]

For assay [2], the target named is lipid SUVs with a phospholipid composition similar to the OMM (55% PC, 30% PE, 13% PI, 2% DOPS). The assay can be described thus: Equilibrium binding of peptides to OMM mimicking vesicles by fluorescence anisotropy. As for the experimental part: (§2) Phosphatidylcholine (PC, Sigma), Phosphatidylethanolamine (PE, Sigma), Phosphatidylinositol (PI, Sigma) and Dioleoyl phosphatidylserine (DOPS, Avanti) were mixed in chloroform and evaporated under nitrogen. The vesicles were then resuspended in 40 mM Hepes pH 7.1, 150 mM NaCl and subjected to 10 freeze-thaw cycles in liquid nitrogen and kept in −80° C. The vesicles were thawed and sonicated for five min at low intensity; insoluble material was removed by centrifugation at 100,000×gav for 20 min. Vesicles were used within two days after sonication.
(§3) Equilibrium binding by Fluorescence Anisotropy (FA) measurements was performed with PCI spectrofluorimeter (ISS, Champaign, Ill.) designed as T-format for simultaneous acquisition on two emission channel monochromators equipped with automatic polarizers. Samples were equilibrated (60 min, RT) and then measurements were done with intrinsic fluorescence of the peptide with λex=280 nm using vertical polarized light and the emitted vertical and horizontal polarized light was monitored at 90° with double emission monochromators at λem=325 nm. (i-factor for correction of the different gain between the dual PMT detectors was calculated as described by the instrument manufacturer. The binding model for a simple bimolecular reaction was:
[formula] [formula] Under the condition of Ptot<<KD then the general solution for this equilibrium binding scheme is in the form of the following quadratic equation:
[formula] Ptot is monitoring species; Vtot is titrating species and [PV] is the bound species. The total fluorescence and anisotropy were fitted globally (Origin Lab 9.0) according to Otto et al. Biophys J, 1994. 67(6): p. 2511-21.
Myo19 peptides were purchased as crude preparations and resuspended in 10% Acetonitrile (ACN) and either 0.1% (for Myo19^851-895) or 0.01% (for Myo19^858-883 and Myo19^858-RK883SS) trifluoroacetic acid (TFA). The peptides were then loaded on a C-18 column (Waters) and separated by reverse phase chromatography. Peaks were analyzed by MALDI-TOF and verified to be of the right molecular weight corresponding to the peptide size. The peptides were then dried and resuspended in either 5% DMF (Myo19^858-883 and Myo19^RK883SS) or 16% DMF (Myo19^851-895) in binding buffer (40 mM Hepes pH 7.1, 150 mM NaCl). Myo19^851-895, Myo19^858-883, Myo19^858-RK883SS peptides were from GL Biochem (Shanghai, China). Zeta1 was from Sigma (Saint Louis, Mo., USA).
To characterize Myo19 membrane binding motif, the binding of a synthetic peptide representing Myo19 residues 851-895 (SEQ ID NO: 12, Table 3) to lipid SUVs (Small unilamellar vesicles) with a phospholipid composition similar to the OMM (55% PC, 30% PE, 13% PI, 2% DOPS (de Kroon et al., 1997)) was tested. Binding was followed via fluorescence anisotropy (FA) relying on two tryptophan residues that are present in the peptide. […] Equilibrium binding of Myo19 peptide to vesicles was monitored by titrating peptide versus increasing vesicles concentration. […] Therefore, to account for the FTI change during the FA measurements, global fitting to both signals arising from peptide binding to vesicles to compensate for the change in fluorescence yield during FA measurements was applied. […] In-vitro binding of a hydrophilic peptide Zeta1 (SEQ ID NO:15, Table 3), was much weaker (˜2.5 folds) compared to the Myo19 peptide (124.4±18.7 μM), supporting the notion that Myo19-OMM binding is mediated by hydrophobic interactions (FIG. 23). Although our newly identified membrane motif is essential and sufficient for OMM localization in cells, the cellular specificity may be achieved by unique, yet unidentified cytosolic or others mitochondrial components.
Background: Fluorescence polarisation rises when a labelled molecule tumbles more slowly, as on binding a larger partner.

Assay [3] concerns the target ER mimicking vesicles (20% PE, 66 & PC, 9% PI, 3% DOPS). The assay can be described thus: Equilibrium binding of peptides to ER mimicking vesicles by fluorescence anisotropy. To be noted: FA/FTI global fit; peptide concentrations 4 μM; N=1; read-out: affinity to ER mimicking vesicles. As for the experimental part:
as §2, §3
[formula] […]

The test system of assay [4] is mitochondria (MitoTracker) or ER. The assay can be described thus: Colocalization of eGFP-fused myosin 19 tail constructs with mitochondria (MitoTracker) or ER (SRβ). In kind it is cell-based. To be noted: myosin 19^824-970-eGFP and mutant variants ectopically expressed. As for the experimental part: Generation of peGFP-myosin 19 mutations and truncations were performed using high fidelity PCR enzymes with phosphorylated primers (Phusion, T4 PNK, NEB). We used peGFP-myosin 19 (peGFP-N1b was kindly provided by Dr. Ayoub (Technion-IIT)) or peGFP-myosin 19 tail (aa 824-970) as template with a single exception for peGFP-myosin 19^860-890 where peGFP-myosin 19^860-970 was used. The products were ligated using T4 ligase (NEB, Promega) and sequenced.
as §1
In accordance to the finding in the cells (FIG. 2A), Myo19^860-890-eGFP was co-purified with mitochondria, however unlike the endogenous Myo19, it appears to be more sensitive to extraction by salt. Carbonate completely extracts Myo19^860-890-eGFP from purified mitochondria, similarly to endogenous Myo19 (FIG. 22). The difference in salt sensitivity may be due to insufficient length of the motif to be fully anchored in the membrane as in the WT endogenous protein. Another possibility is that a certain part of Myo19^860-890-eGFP was correctly anchored, where the rest was present there nonspecifically, e.g. through dimerization of eGFP. […] To further explore the OMM targeting the motif sequence was examined. Although there is no consensus sequence targeting proteins to the OMM, it was shown that a moderately hydrophobic motif flanked by positive residues is required for OMM localization. […]

The mark [5] stands for this setting: FA/FTI global fit, peptide concentrations 4 μM, N=1, read-out: affinity to OMM mimicking vesicles.

“Also recorded” adds a separate entry of the source. Like-named read-outs stand apart in the source and are kept apart here. Some results are limits rather than exact numbers.

Turning to `C/C1=C/C(=O)O[C@@H]2C[C@@H](CC[C@H](C)/C=C\CC1)O[C@@](O)([C@@H]1CSC(=O)N1)C2` [Latrunculin B], the “cells showing <2 Myo19 foci” value in assay [1] (0.2 μM latrunculin B 30 min prior to starvation) was < 30 % of the cells. Moreover, the “starvation-induced translocation of myosin 19 and the mitochondria to the cell periphery” value in assay [1] (0.2 μM, 30 min pre-treatment, then starvation) is “inhibited”.
For `COC(=O)Nc1nc2ccc(C(=O)c3cccs3)cc2[nH]1` [nocodazole], the “localization of myosin 19 and mitochondria after nocodazole treatment” value in assay [1] (0.75 μg/ml nocodazole for three hrs, no starvation) was “induced the same altered localization”. Besides, in assay [1] (nocodazole treatment, complete media conditions), the “cells with induced Myo19 foci formation” value is > 80 % of the cells.
With “EAIIRLWPLGLVLANTAMGVGSFQRK [Myo19^858-883, shorter peptide derived from Myo19 membrane motif]”, the Kd in assay [2] (setting [5]) is 45 ± 14.1 µM; in assay [3], 50.5 ± 22 µM.
Consider “EAIIRLWPLGLVLANTAMGVGSFQSS [Myo19^858-RK882/3SS, corresponding ER mutant of the shorter Myo19 peptide]”, for which the Kd in assay [2] (setting [5]) was found to be 49 ± 17.2 µM.
Consider “FRWGKPVGKKRRPVKVYPNGAEDESAEAFPLE [Zeta1, reference compound]”, for which the Kd in assay [2] (setting [5]) is 124 ± 18.7 µM. Also, in assay [2] (Zeta1 versus Myo19 peptide), the “binding weaker compared to the Myo19 peptide” value is approximately 2.5 folds.
Take “IIRL*WPLGLVLANTAMGVGSF*QSSLVVWACL (IIRLWPLGLVLANTAMGVGSFQSSLVVWACL) [RK882/3SS, myosin 19 tail-eGFP construct with R882S and K883S in combination]”: in assay [4] (listed as SEQ ID NO: 10), the Localization entry is “shift of the intracellular localization of Myo19 to the ER”.
With “IIRL*WVLGLVLANTAMGVGSF*QRKLVVWACL (IIRLWVLGLVLANTAMGVGSFQRKLVVWACL) [Peptide P865V, myosin 19 tail-eGFP construct with point mutation P865V]”, the Localization result in assay [4] was “dual localization to both the ER and the mitochondria; also recorded: ER/Mito-”.
Consider “PLQTRLLEAIIRLWPLGLVLANTAMGVGSFQRKLVVWACLQLPRG [Myo19^851-895, synthetic peptide representing Myo19 residues 851-895]”, for which the “effect of [NaCl] on the magnitude of binding to vesicles” value in assay [2] ([NaCl] up to 1 M, peptide and vesicles 35 μM each) is recorded as “no effect”. Also, the Kd in assay [2] (global fit of FA and FTI, peptide concentration 35 μM, 40 mM Hepes pH 7.1, 150 mM NaCl, read-out: apparent binding constant KD) is 281 ± 50 µM.

B1: IIRL*WPLGLVLANTAMGVGSF*QRKLVVWACL (protein, UniProt Q96H55 824-970, looked up, fragment)
chain: MACLAAKELDGVEEKHFSQAPCSLSTSPLQTRLLEAIIRLWPLGLVLANTAMGVGSFQRKLVVWACLQLPRGSPSSYTVQTAQDQAGVTSIRALPQGSIKFHCRKSPLRYADICPEPSPYSITGFNQILLERHRLIHVTSSAFTGLG
modifications: eGFP fusion
Take B1: in assay [4], the Localization result is “Mito-”.
